From patent publication US11000033B2, “Ketone or oxime compound, and herbicide” (NISSAN CHEMICAL CORPORATION, priority 2014, dated 2021)

Assays:
Assay type in all cases: in vivo
[1] = tested on: Stellaria media; assay: Test Example 5: herbicidal effect by foliage application, plastic box (symbol P); conditions: 320 g/ha, 3 weeks after application
How it was run: (§1)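 Emulsion formulation, diluted with water to the intended rate, was applied uniformly to leaves by small sprayer. Recipients were 14-day greenhouse-grown seedlings (25° C. to 30° C.). Assessment followed at 3 weeks.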

[2] = tested on: Echinochloa crus-galli var. crus-galli; assay: Test Example 4: herbicidal effect by soil treatment (symbol H)
How it was run: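 Seeds were sown in sterilized diluvial soil, covered with about 1.5 cm of soil, and the soil surface was sprayed with a water-diluted emulsion of the compound at a predetermined rate. Plants grew in a greenhouse at 25° C. to 30° C.; effects were scored visually 3 weeks after application.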

[3] = tested on: Monochoria vaginalis; assay: Test Example 2: herbicidal activity, application during weed generation in submerged conditions (symbol C); conditions: Table 23; application herbicide amount 320 g/ha; grade 0-5 by criteria of Test Example 1
How it was run: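 Seeds sown in flooded alluvial soil (4 cm water) were grown in a 25-30° C greenhouse. At the one- to two-leaf stage, diluted emulsion of compound was applied to the water surface at a predetermined rate. Effect was scored 3 weeks later.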

[4] = tested on: Abutilon theophrasti; assay: Test Example 5: herbicidal effect by foliage application, plastic box (symbol M); conditions: 320 g/ha, 3 weeks after application
How it was run: as §1

[5] = tested on: Echinochloa crus-galli var. crus-galli; assay: Test Example 5: herbicidal effect by foliage application, plastic box (symbol H); conditions: 320 g/ha, 3 weeks after application
How it was run: as §1

[6] = application herbicide amount 320 g/ha

SMILES | P: Stellaria media, herbicidal effect (criteria 0-5) [1] | H: Echinochloa crus-galli var. crus-galli, herbicidal effect grade ([2]; 320 g/ha) | Herbicidal effect grade, C: Monochoria vaginalis [3] | M: Abutilon theophrasti, herbicidal effect (criteria 0-5) [4] | H: Echinochloa crus-galli var. crus-galli, herbicidal effect (criteria 0-5) [5] | P: Stellaria media, herbicidal effect grade [1] | Herbicidal effect grade, H: Echinochloa crus-galli var. crus-galli [2, 6] | M: Abutilon theophrasti, herbicidal effect grade [4] | H: Echinochloa crus-galli var. crus-galli, herbicidal effect grade [5] | H: Echinochloa crus-galli var. crus-galli, herbicidal effect grade [2, 6]
CC(CC1CC(O)=C(c2c(C)cc(C)cc2C)C1=O)=NOCc1ccccc1C(F)(F)F (stereo not shown) [1-116] | 2 (Herbicidal ratio of 20% or higher and lower than 40%) | 3 (Herbicidal ratio of 40% or higher and lower than 70%) | 2 (Herbicidal ratio of 20% or higher and lower than 40%) | 1 (Herbicidal ratio of 5% or higher and lower than 20%) | 5 (Herbicidal ratio of 90% or more (almost completely withered)) | – | – | – | – | –
Cc1cc(Br)cc(C)c1C1=C(O)CC(CC(=O)C(C)C)C1=O (racemic) [10-003] | – | – | 0 (Herbicidal ratio of 5% or lower (almost no effect)) | – | – | 0 (Herbicidal ratio of 5% or lower (almost no effect)) | 5 (Herbicidal ratio of 90% or more (almost completely withered)) | 0 (Herbicidal ratio of 5% or lower (almost no effect)) | 5 (Herbicidal ratio of 90% or more (almost completely withered)) | –
CCC(Oc1ccc2ncc(Br)cc2c1)C(=O)OC1=C(c2c(C)cc(C)cc2C)C(=O)C(CC(C)=NOC)C1 (stereo not shown) [1-140] | 3 (Herbicidal ratio of 40% or higher and lower than 70%) | 5 (Herbicidal ratio of 90% or more (almost completely withered)) | 3 (Herbicidal ratio of 40% or higher and lower than 70%) | 4 (Herbicidal ratio of 70% or higher and lower than 90%) | 5 (Herbicidal ratio of 90% or more (almost completely withered)) | – | – | – | – | –
CON=C(C)CC1CC(OC(=O)c2cnoc2C2CC2)=C(c2c(C)cc(C)cc2C)C1=O (stereo not shown) [1-103] | 2 (Herbicidal ratio of 20% or higher and lower than 40%) | 5 (Herbicidal ratio of 90% or more (almost completely withered)) | 0 (Herbicidal ratio of 5% or lower (almost no effect)) | 4 (Herbicidal ratio of 70% or higher and lower than 90%) | 5 (Herbicidal ratio of 90% or more (almost completely withered)) | – | – | – | – | –
Cc1cc(Br)cc(C)c1C1=C(O)CC(CC(=O)C2CC2)C1=O (racemic) [10-004] | – | – | 0 (Herbicidal ratio of 5% or lower (almost no effect)) | – | – | 0 (Herbicidal ratio of 5% or lower (almost no effect)) | 5 (Herbicidal ratio of 90% or more (almost completely withered)) | 3 (Herbicidal ratio of 40% or higher and lower than 70%) | 5 (Herbicidal ratio of 90% or more (almost completely withered)) | –
CON=C(CC1CC(O)=C(c2c(C)cc(-c3ccccc3)cc2C)C1=O)C1CC1 (mixture of isomers) [9-028] | – | – | 4 (Herbicidal ratio of 70% or higher and lower than 90%) | – | – | 3 (Herbicidal ratio of 40% or higher and lower than 70%) | 5 (Herbicidal ratio of 90% or more (almost completely withered)) | 1 (Herbicidal ratio of 5% or higher and lower than 20%) | 5 (Herbicidal ratio of 90% or more (almost completely withered)) | –
CC#Cc1cc(C)c(C2=C(O)CC(CC(=NOCCOC)C(C)C)C2=O)c(C)c1 (stereo not shown) [9-023] | – | – | 1 (Herbicidal ratio of 5% or higher and lower than 20%) | – | – | 3 (Herbicidal ratio of 40% or higher and lower than 70%) | 5 (Herbicidal ratio of 90% or more (almost completely withered)) | 0 (Herbicidal ratio of 5% or lower (almost no effect)) | 5 (Herbicidal ratio of 90% or more (almost completely withered)) | –
Cc1cc(-n2cc(Cl)cn2)cc(C)c1C1=C(O)CC(CC(=NOCC(F)(F)F)C(C)C)C1=O (stereo not shown) [9-014] | – | – | 0 (Herbicidal ratio of 5% or lower (almost no effect)) | – | – | 0 (Herbicidal ratio of 5% or lower (almost no effect)) | 1 (Herbicidal ratio of 5% or higher and lower than 20%) | 0 (Herbicidal ratio of 5% or lower (almost no effect)) | 5 (Herbicidal ratio of 90% or more (almost completely withered)) | –
CCC(CC1CC(O)=C(c2c(C)cc(Br)cc2OC)C1=O)=NOC (mixture of isomers) [13-001] | – | – | 0 (Herbicidal ratio of 5% or lower (almost no effect)) | – | – | 0 (Herbicidal ratio of 5% or lower (almost no effect)) | – | 1 (Herbicidal ratio of 5% or higher and lower than 20%) | 5 (Herbicidal ratio of 90% or more (almost completely withered)) | 5 (Herbicidal ratio of 90% or more (almost completely withered))
CC(CC1CC(O)=C(c2c(C)cc(C)cc2C)C1=O)=NOCc1ccc(Cl)cc1 (stereo not shown) [1-137] | 0 (Herbicidal ratio of 5% or lower (almost no effect)) | 5 (Herbicidal ratio of 90% or more (almost completely withered)) | 3 (Herbicidal ratio of 40% or higher and lower than 70%) | 4 (Herbicidal ratio of 70% or higher and lower than 90%) | 5 (Herbicidal ratio of 90% or more (almost completely withered)) | – | – | – | – | –
CON=C(C)CC1CC(OC(=O)N(C)C)=C(c2c(C)cc(C)cc2C)C1=O (stereo not shown) [1-108] | 3 (Herbicidal ratio of 40% or higher and lower than 70%) | 5 (Herbicidal ratio of 90% or more (almost completely withered)) | 1 (Herbicidal ratio of 5% or higher and lower than 20%) | 4 (Herbicidal ratio of 70% or higher and lower than 90%) | 5 (Herbicidal ratio of 90% or more (almost completely withered)) | – | – | – | – | –
CON=C(C)CC1(C)CC(O)=C(c2c(C)cc(C)cc2C)C1=O (mixture of isomers) [11-002] | – | – | 0 (Herbicidal ratio of 5% or lower (almost no effect)) | – | – | 0 (Herbicidal ratio of 5% or lower (almost no effect)) | 3 (Herbicidal ratio of 40% or higher and lower than 70%) | 0 (Herbicidal ratio of 5% or lower (almost no effect)) | 5 (Herbicidal ratio of 90% or more (almost completely withered)) | –
COc1cc(Br)cc(C)c1C1=C(O)CC(CC(=O)C2CC2)C1=O (racemic) [14-001] | – | – | 1 (Herbicidal ratio of 5% or higher and lower than 20%) | – | – | 0 (Herbicidal ratio of 5% or lower (almost no effect)) | – | 4 (Herbicidal ratio of 70% or higher and lower than 90%) | 5 (Herbicidal ratio of 90% or more (almost completely withered)) | 5 (Herbicidal ratio of 90% or more (almost completely withered))
CC#Cc1cc(C)c(C2=C(O)CC(CC(=NOC)C3CC3)C2=O)c(C)c1 (stereo not shown) [9-008] | – | – | 3 (Herbicidal ratio of 40% or higher and lower than 70%) | – | – | 4 (Herbicidal ratio of 70% or higher and lower than 90%) | 5 (Herbicidal ratio of 90% or more (almost completely withered)) | 4 (Herbicidal ratio of 70% or higher and lower than 90%) | 5 (Herbicidal ratio of 90% or more (almost completely withered)) | –
